Each structure is given as a SMILES string. Where a name gives a salt, the structure may show the parent alone. Where only a bound is given, the exact number is not on record here.

The melting point is the temperature, or range, at which the solid turns liquid. Regarding `COC(=O)c1cccc(Nc2ncc(-c3ccccc3)s2)n1` [Compound 4-6, 6-(5-Phenyl-thiazol-2-ylamino)-pyridine-2-carboxylic Acid Methyl Ester], the melting point was in the range of 231 to 232 °C.

As for `FC(F)(F)c1ccc(-c2cnc(Nc3ccccn3)s2)cc1` [Compound 5-16, Pyridin-2-yl-[5-(4-trifluoromethyl-phenyl)-thiazol-2-yl]-amine], the melting point was more than 250 °C.

For `Brc1ccc(Nc2ncc(-c3ccccc3)s2)nc1` (as salt: HBr) [Compound 4-4, (5-Bromo-pyridin-2-yl)-(5-phenyl-thiazol-2-yl)-amine], the melting point was more than 220 °C.

On to `Clc1ccc(-c2cnc(Nc3ccccn3)s2)cc1Cl` [Compound 5-24, [5-(3,4-dichloro-phenyl)-thiazol-2-yl]-pyridin-2-yl-amine], for which the melting point is more than 250 °C.

As for `FC(F)(F)c1cccc(-c2cnc(Nc3ccccn3)s2)c1` [Compound 5-15, Pyridin-2-yl-[5-(3-trifluoromethyl-phenyl)-thiazol-2-yl]-amine], the melting point fell in the range of 242 to 244 °C.

Take `Clc1ccc(-c2cnc(Nc3ccccn3)s2)cc1` [Compound 5-23, [5-(4-Chloro-phenyl)-thiazol-2-yl]-pyridin-2-yl-amine]: the melting point is more than 250 °C.

Turning to `Clc1ccccc1-c1cnc(Nc2ccccn2)s1` [Compound 5-21, [5-(2-Chloro-phenyl)-thiazol-2-yl]-pyridin-2-yl-amine], the melting point was 213 to 215 °C.

The molecule `Fc1ccccc1-c1cnc(Nc2ccccn2)s1` [Compound 5-18, [5-(2-Fluoro-phenyl)-thiazol-2-yl]-pyridin-2-yl-amine] gave a melting point of 227 to 228 °C.

`Fc1cccc(-c2cnc(Nc3ccccn3)s2)c1` [Compound 5-19, [5-(3-Fluoro-phenyl)-thiazol-2-yl]-pyridin-2-yl-amine] had a melting point of more than 250 °C.

The molecule `FC(F)(F)c1ccccc1-c1cnc(Nc2ccccn2)s1` [Compound 5-14, Pyridin-2-yl[5-(2-trifluoromethyl-phenyl)-thiazol-2-yl]-amine] came in with a melting point of 195 to 203 °C.

In the case of `c1ccc(Nc2ncc(-c3cccc4ccccc34)s2)nc1` [Compound 5-9, (5-Naphthalen-1-yl-thiazol-2-yl)-pyridin-2-yl-amine], the melting point lay within 223.5 to 226 °C.

Regarding `CCc1cnc(Nc2ccccn2)s1` [Compound 4-18, (5-Ethyl-thiazol-2-yl)-pyridin-2-yl-amine], the melting point was found to be 113 °C.

In the case of `Cc1ccccc1-c1cnc(Nc2ccccn2)s1` [Compound 5-6, Pyridin-2-yl-(5-o-tolyl-thiazol-2-yl)-amine], the melting point is 155 to 160 °C.

The molecule `Cc1cccc(-c2cnc(Nc3ccccn3)s2)c1` [Compound 5-7, Pyridin-2-yl-(5-m-tolyl-thiazol-2-yl)-amine] gave a melting point of 204 to 205 °C.

In the case of `Fc1ccc(-c2cnc(Nc3ccccn3)s2)cc1` [Compound 5-20, [5-(4-Fluoro-phenyl)-thiazol-2-yl]-pyridin-2-yl-amine], the melting point was 239 to 240 °C.

The record behind these values is patent publication US6586424B2, “Tyrosine kinase inhibitors” (Merck & Co., Inc., priority 1999, dated 2003).
